Measurements as given in PubChem BioAssay (NCI).
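Exposure lasted 48 hours, with cells grown in 96-well plates and compounds tested at five concentrations. GI50: concentration for 50% inhibition of growth. Definition used: TGI = concentration required for complete inhibition of growth.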

How the values were obtained:
Experiment in all cases: growth of human tumour cells (NCI), 48 h
HOP-62 NSCLC = test system: HOP-62 NSCLC
ACHN renal = test system: ACHN renal
MDA-MB-231 breast = test system: MDA-MB-231 breast
NCI-H460 lung = test system: NCI-H460 lung
SNB-19 CNS = test system: SNB-19 CNS
UACC-62 melanoma = test system: UACC-62 melanoma
SK-MEL-2 melanoma = test system: SK-MEL-2 melanoma
SF-268 CNS = test system: SF-268 CNS
BT-549 breast = test system: BT-549 breast
NCI/ADR-RES ovarian = test system: NCI/ADR-RES ovarian
HCT-15 colon = test system: HCT-15 colon
SR leukemia = test system: SR leukemia
EKVX NSCLC = test system: EKVX NSCLC
CCRF-CEM leukemia = test system: CCRF-CEM leukemia
UO-31 renal = test system: UO-31 renal
HS 578T breast = test system: HS 578T breast
HCC-2998 colon = test system: HCC-2998 colon
TK-10 renal = test system: TK-10 renal
T-47D breast = test system: T-47D breast
HT29 colon = test system: HT29 colon
MCF7 breast = test system: MCF7 breast
MDA-MB-435 = test system: MDA-MB-435
CAKI-1 renal = test system: CAKI-1 renal
PC-3 prostate = test system: PC-3 prostate
KM12 colon = test system: KM12 colon
IGROV1 ovarian = test system: IGROV1 ovarian
COLO 205 colon = test system: COLO 205 colon
DU-145 prostate = test system: DU-145 prostate
SN12C renal = test system: SN12C renal
UACC-257 melanoma = test system: UACC-257 melanoma
RXF 393 renal = test system: RXF 393 renal
OVCAR-3 ovarian = test system: OVCAR-3 ovarian
HOP-92 NSCLC = test system: HOP-92 NSCLC
RPMI-8226 leukemia = test system: RPMI-8226 leukemia
LOX IMVI melanoma = test system: LOX IMVI melanoma
SW-620 colon = test system: SW-620 colon
NCI-H226 lung = test system: NCI-H226 lung
SK-MEL-28 melanoma = test system: SK-MEL-28 melanoma
OVCAR-5 ovarian = test system: OVCAR-5 ovarian
U251 CNS = test system: U251 CNS
NCI-H522 lung = test system: NCI-H522 lung
K-562 leukemia = test system: K-562 leukemia
SF-539 CNS = test system: SF-539 CNS
A498 renal = test system: A498 renal
A549 NSCLC = test system: A549 NSCLC
NCI-H23 lung = test system: NCI-H23 lung
MOLT-4 leukemia = test system: MOLT-4 leukemia
M14 melanoma = test system: M14 melanoma
SF-295 CNS = test system: SF-295 CNS
HL-60(TB) leukemia = test system: HL-60(TB) leukemia
SK-MEL-5 melanoma = test system: SK-MEL-5 melanoma
OVCAR-8 ovarian = test system: OVCAR-8 ovarian
786-0 renal = test system: 786-0 renal
HCT-116 colon = test system: HCT-116 colon

COc1cc(/C=C2\C[C@H]3[C@@H]4CC=C5C[C@@H](OC(C)=O)CC[C@]5(C)[C@H]4CC[C@]3(C)[C@H]2OC(C)=O)ccc1OCCCn1ccnc1
GI50 (HOP-62 NSCLC): 11.3 µM | TGI (HOP-62 NSCLC): 19.5 µM | GI50 (ACHN renal): 8.49 µM | TGI (ACHN renal): 15.9 µM | GI50 (MDA-MB-231 breast): 8.2 µM | TGI (MDA-MB-231 breast): 16.6 µM | GI50 (NCI-H460 lung): 9.2 µM | TGI (NCI-H460 lung): 22.9 µM | GI50 (SNB-19 CNS): 21.3 µM | TGI (SNB-19 CNS): > 50 µM | GI50 (UACC-62 melanoma): 8.81 µM | TGI (UACC-62 melanoma): 16.1 µM | GI50 (SK-MEL-2 melanoma): 16.7 µM | TGI (SK-MEL-2 melanoma): > 50 µM | GI50 (SF-268 CNS): 9.63 µM | TGI (SF-268 CNS): 21.6 µM | GI50 (BT-549 breast): 5.68 µM | TGI (BT-549 breast): 13.6 µM | GI50 (NCI/ADR-RES ovarian): 11.3 µM | TGI (NCI/ADR-RES ovarian): 28.8 µM | GI50 (HCT-15 colon): 7.5 µM | TGI (HCT-15 colon): 16 µM | GI50 (SR leukemia): 8.2 µM | TGI (SR leukemia): 36.3 µM | GI50 (EKVX NSCLC): 9.49 µM | TGI (EKVX NSCLC): 20 µM | GI50 (CCRF-CEM leukemia): 11.3 µM | TGI (CCRF-CEM leukemia): 40.9 µM | GI50 (UO-31 renal): 12.7 µM | TGI (UO-31 renal): > 34 µM | GI50 (HS 578T breast): 5.85 µM | TGI (HS 578T breast): 16.5 µM | GI50 (HCC-2998 colon): 9.47 µM | TGI (HCC-2998 colon): 17.7 µM | GI50 (TK-10 renal): 3.73 µM | TGI (TK-10 renal): 13.3 µM | GI50 (T-47D breast): 16 µM | TGI (T-47D breast): > 50 µM | GI50 (HT29 colon): 18.5 µM | TGI (HT29 colon): > 50 µM | GI50 (MCF7 breast): 9.95 µM | TGI (MCF7 breast): 20.9 µM | GI50 (MDA-MB-435): 10.2 µM | TGI (MDA-MB-435): 22.1 µM | GI50 (CAKI-1 renal): 7.05 µM | TGI (CAKI-1 renal): 15.8 µM | GI50 (PC-3 prostate): 11.5 µM | TGI (PC-3 prostate): 29.1 µM | GI50 (KM12 colon): 8.31 µM | TGI (KM12 colon): 18.1 µM | GI50 (IGROV1 ovarian): 16.8 µM | TGI (IGROV1 ovarian): > 50 µM | GI50 (COLO 205 colon): 11.6 µM | TGI (COLO 205 colon): 38.5 µM | GI50 (DU-145 prostate): 9.14 µM | TGI (DU-145 prostate): 18.7 µM | GI50 (SN12C renal): 8.84 µM | TGI (SN12C renal): 21.9 µM | GI50 (UACC-257 melanoma): 8.43 µM | TGI (UACC-257 melanoma): 17.3 µM | GI50 (RXF 393 renal): 1.78 µM | TGI (RXF 393 renal): 10.4 µM | GI50 (OVCAR-3 ovarian): 12.3 µM | TGI (OVCAR-3 ovarian): 26.2 µM | GI50 (HOP-92 NSCLC): 9.45 µM | TGI (HOP-92 NSCLC): 20 µM | GI50 (RPMI-8226 leukemia): 0.515 µM | TGI (RPMI-8226 leukemia): 1.77 µM | GI50 (LOX IMVI melanoma): 7.46 µM | TGI (LOX IMVI melanoma): 14.9 µM | GI50 (SW-620 colon): 10.3 µM | TGI (SW-620 colon): > 30.1 µM | GI50 (NCI-H226 lung): 7.78 µM | TGI (NCI-H226 lung): 24.6 µM | GI50 (SK-MEL-28 melanoma): 15.9 µM | TGI (SK-MEL-28 melanoma): > 50 µM | GI50 (OVCAR-5 ovarian): 12.7 µM | TGI (OVCAR-5 ovarian): 33.6 µM | GI50 (U251 CNS): 6.28 µM | TGI (U251 CNS): 12.7 µM | GI50 (NCI-H522 lung): 12.8 µM | TGI (NCI-H522 lung): > 36.3 µM | GI50 (K-562 leukemia): 5.59 µM | TGI (K-562 leukemia): 19.7 µM | GI50 (SF-539 CNS): 4.72 µM | TGI (SF-539 CNS): 12.5 µM | GI50 (A498 renal): 7.19 µM | TGI (A498 renal): 15 µM | GI50 (A549 NSCLC): 8.45 µM | TGI (A549 NSCLC): 20.4 µM | GI50 (NCI-H23 lung): 9.94 µM | TGI (NCI-H23 lung): 21.1 µM | GI50 (MOLT-4 leukemia): 17.1 µM | TGI (MOLT-4 leukemia): > 50 µM | GI50 (M14 melanoma): 8.85 µM | TGI (M14 melanoma): 16.6 µM | GI50 (SF-295 CNS): 4.77 µM | TGI (SF-295 CNS): 12.4 µM | GI50 (HL-60(TB) leukemia): 12.7 µM | TGI (HL-60(TB) leukemia): 34.1 µM | GI50 (SK-MEL-5 melanoma): 7.25 µM | TGI (SK-MEL-5 melanoma): 15.4 µM | GI50 (OVCAR-8 ovarian): 10.7 µM | TGI (OVCAR-8 ovarian): 24.7 µM | GI50 (786-0 renal): 6.06 µM | TGI (786-0 renal): 13.4 µM | GI50 (HCT-116 colon): 7.78 µM | TGI (HCT-116 colon): 17.2 µM
